Laboratory results taken from patent US4254126A, “4-Carbethoxy-carbonilamino-pyrimidines and a process for their preparation” (POLI Industria Chimica S.p.A., priority 1978, dated 1981).
Where two headings read alike, the source gives them in different places.

Experiments:
Format in all cases: in vivo
[1] = test system: ulcers by cold and restraint; assay: ulcers by cold and restraint; details: Rattus norvegicus, po; os, 50% reduction of ulcers by cold and restraint; read-out: Antisecretory and antiulcer activity ED50 Restraint
Source text: (§1) The pharmacological study of the antiulcer activity of the compounds, in accordance with the present invention, has been carried out determining the dose which inhibits the gastric acid secretion by 50% (ED50) in pylorus ligated rats (Shay rats) according to the method described by Shay et al., in Gastroenterology 26, 906, 1954, the dose which reduces by 50% (ED50) the indomethacin-induced ulcers according to the procedure described by Leet et al., in Arch. Int. Pharmacodyn. 191, 370, 1971 and the dose which reduces by 50% (ED50) the ulcers by cold and restraint according to the procedure described by Senay and Levine in Proc. Soc. Exp. Biol. Med. 124, 1221, 1967.

gastric acid secretion = assay: inhibition of gastric acid secretion in pylorus ligated rats (Shay rats); details: Rattus norvegicus, po, os, 50% inhibition of gastric acid secretion, read-out: Antisecretory and antiulcer activity ED50 Shay
Source text: as §1

[2] = test system: indomethacin-induced ulcers; assay: indomethacin-induced ulcers; details: Rattus norvegicus, po; os, 50% reduction of indomethacin-induced ulcers; read-out: Antisecretory and antiulcer activity ED50 Indometacin
Source text: as §1

[3] = test system: Passive Cutaneous Anaphylaxis; assay: Passive Cutaneous Anaphylaxis (PCA test) in the Rat; details: administered 5 minutes before the antigen
Procedure: The compounds of general formula (I) are all endowed with an extremely low toxicity (the DL50 per os in rats is higher than 1600 mg/kg for all the compounds) and they are rapidly absorbed through oral administration, so that the DE50 (the dosage capable of reducing the effects of the noxious stimulus by 50%) in the Passive Cutaneous Anaphylaxis Test in the rat is almost the same whether administered orally or intraperitoneally.
(a) Production of antiovalbumin reaginic serum. Male rats (COBS-CD) weighing 300 to 400 g, are immunized by intramuscular injection of 0.1 ml/kg of ovalbumin solution obtained by dissolving 20 mg of ovalbumin (Sigma) in 1 ml of saline and by intraperitoneal injection of 1 ml of pertussis vaccine (Abetin Sclavo). After eleven days the animals are killed, the blood collected and after one night at 4° C., centrifuged and sera stored at -20° C.
(b) PCA test--Male rats (COBS-CD) weighing 125 to 135 g were sensitized by two intradermal injections on the shaved back of 0.1 ml of anti-ovalbumin serum. After 24 hours, 25 mg/kg of ovalbumin and 25 mg/kg of Evans blue are injected intravenously and thirty minutes later the animals are killed, the skin of the back removed and the major and minor diameters of the two spots on the reflected skin are measured.

[4] = ip, intraperitoneal, read-out: PCA Test ED50 l.p.
[5] = po, os, read-out: PCA Test ED50 os

Row | SMILES | ED50 [1] [mg/kg] | ED50 (gastric acid secretion) [mg/kg] | ED50 [2] [mg/kg] | ED50 [3, 4] [mg/kg] | ED50 [3, 5] [mg/kg]
1 | CCOC(=O)C(=O)Nc1cc(SCCOC)nc(C)n1 [Symbol 955] | 7 | 2.3 | 2.8 | 6.9 | 25
2 | CCOC(=O)C(=O)Nc1cc(SC)nc(C)n1 [Symbol 928] | 14 | 7.2 | 2 | 30 | > 100
3 | CCOC(=O)C(=O)Nc1ccncn1 [Symbol 933] | 10 | 3.8 | 4.7 | 32 | 96
4 | CCOC(=O)C(=O)Nc1cc(OC)ncn1 [Symbol 907] | 12 | 3.2 | 4.6 | 32 | 100
5 | CCOC(=O)C(=O)Nc1cc(OC)nc(OC)n1 [Symbol 934] | 11 | 4.1 | 5.6 | 25 | > 100
6 | CCOC(=O)CCCSc1cc(NC(=O)C(=O)OCC)ncn1 [Symbol 953] | 12 | 7.2 | 8.8 | 3.2 | 26
7 | CCOC(=O)C(=O)Nc1cc(Cl)ncn1 [Symbol 931] | 22 | 6.3 | 7.2 | 24 | > 100
8 | CCOC(=O)C(=O)Nc1cc(OC)nc(-c2ccccc2)n1 [Symbol 921] | 25 | 6.2 | 15 | 30 | 100
9 | CCOC(=O)C(=O)Nc1cc(SCCOC)ncn1 [Symbol 957] | 14 | 6.2 | 9.4 | 5.8 | 23
10 | CCOC(=O)C(=O)Nc1cc(OCCOCCOC)ncn1 [Symbol 963] | 16 | 6.1 | 7.3 | 6.2 | 24
11 | CCOC(=O)C(=O)Nc1cc(OCCOC)nc(C)n1 [Symbol 923] | 9 | 4.1 | 3.2 | 25 | 70
12 | CCOC(=O)C(=O)Nc1cc(OCCOC)ncn1 [Symbol 932, 4-carbethoxycarbonilamino-6-(β-methoxyethoxy)-pyrimidine] | 7 | 2.1 | 3.2 | 10 | 26
13 | CCOC(=O)C(=O)Nc1cc(SCCOC(=O)C(=O)OCC)nc(C)n1 [Symbol 929] | 18 | 8.4 | 22.2 | 2.4 | 18
14 | CCOC(=O)C(=O)Nc1cc(OC)nc(C)n1 [Symbol 913] | 15 | 3.6 | 4.2 | < 5 | > 100
15 | CCOC(=O)C(=O)Nc1cc(SCCOC(=O)C(=O)OCC)ncn1 [Symbol 940] | 8 | 5.2 | 3.6 | 12 | 43
16 | CCOC(=O)C(=O)Nc1cc(OCCOCc2ccccc2)nc(C)n1 [Symbol 927] | 16 | 6.4 | 14.8 | 23 | 80
17 | CCOC(=O)C(=O)Nc1cc(SCCOCCOC)ncn1 [Symbol 965] | 17 | 8.3 | 6.1 | 7.3 | 20
